Data reported in ChEMBL document CHEMBL4007412, “Design, Synthesis, and Biological Evaluation of Mitochondria-Targeted Flavone-Naphthalimide-Polyamine Conjugates with Antimetastatic Activity” (J Med Chem, 2017).

What was measured:
SMMC-7721 = assay: Cytotoxicity against human SMMC7721 cells assessed as cell growth inhibition after 48 hrs by MTT assay; type: functional, cell-based; conditions: SMMC-7721, 48 h
HepG2 = assay: Cytotoxicity against human HepG2 cells assessed as cell growth inhibition after 48 hrs by MTT assay; type: functional, cell-based; conditions: HepG2, 48 h
[1] = Cytotoxicity against human QSG7701 cells assessed as cell growth inhibition after 48 hrs by MTT assay; type: cell-based; conditions: QSG7701, 48 h
H22 [2] = assay: Antitumor activity against […] xenografted in Kunming mouse assessed as suppression of tumor weight at 5 mg/kg, iv dosed every day starting from day 8 after tumor cell inoculation; type: functional
H22 [3] = assay: Antimetastatic activity against […] xenografted in pulmonary metastasis Kunming mouse model assessed as reduction in tumor metastatic nodules at 5 mg/kg, iv dosed every day starting from day 8 after tumor cell inoculation; type: functional; design: scale not given: the % may be the effect or the level left

| SMILES | IC50 (SMMC-7721) | IC50 (HepG2) | IC50 [1] | Activity (H22 [2]) | Activity (H22 [3]) |
| --- | --- | --- | --- | --- | --- |
| O=C1c2cccc3c(-c4cc(=O)c5ccccc5o4)ccc(c23)C(=O)N1CCCN1CCNCC1 | 43.5 µM | > 50 µM | 34.7 µM |  |  |
| NCCCCNCCCN1C(=O)c2cccc3c(-c4cc(=O)c5ccccc5o4)ccc(c23)C1=O | 11.1 µM | 9.84 µM | 41.8 µM |  |  |
| O=C1c2cccc3c(-c4cc(=O)c5ccccc5o4)ccc(c23)C(=O)N1CCCN1CCOCC1 | 31.6 µM | > 50 µM | 47.7 µM |  |  |
| CCCCNCCCCN1C(=O)c2cccc3c(-c4cc(=O)c5ccccc5o4)ccc(c23)C1=O | 10.9 µM | 10.1 µM | 16.1 µM |  |  |
| CCCCN(CCCC)CCCN1C(=O)c2cccc3c(-c4cc(=O)c5ccccc5o4)ccc(c23)C1=O | 16.5 µM | 18.9 µM | > 50 µM |  |  |
| NCCCNCCCNCCCN1C(=O)c2cccc3c(-c4cc(=O)c5ccccc5o4)ccc(c23)C1=O | 11.3 µM | 14.7 µM | 17.4 µM |  |  |
| O=C1c2cccc3c(-c4cc(=O)c5ccccc5o4)ccc(c23)C(=O)N1CCCCN1CCNCC1 | 16.6 µM | 15.5 µM | 16.9 µM |  |  |
| CN(C)CCN1C(=O)c2cccc3cc(N)cc(c23)C1=O [AMONAFIDE] | 9.95 µM | 10.1 µM | 7.84 µM | 48.1% | 41.4% |
